A word on the inhibition: it is the change of the read-out against control, counted positive when it falls. A higher inhibition goes with a response far below the control.

From patent US7951562B2, “Method for glycosylating hydroxylysine residues in polypeptides or peptides” (Oulun Yliopisto, priority 2000, dated 2011) come the findings set out here.

What all share (format): biochemical
In test [1] the target is T1, lysyl hydroxylase activity of His-tagged LH3 (Homo sapiens, UniProt O60568).
T1 construct: human LH1 signal peptide (N, cleaved yes); made in house; host or cells: Sf9 insect cells, baculovirus
T1 sequence (O60568 25-738): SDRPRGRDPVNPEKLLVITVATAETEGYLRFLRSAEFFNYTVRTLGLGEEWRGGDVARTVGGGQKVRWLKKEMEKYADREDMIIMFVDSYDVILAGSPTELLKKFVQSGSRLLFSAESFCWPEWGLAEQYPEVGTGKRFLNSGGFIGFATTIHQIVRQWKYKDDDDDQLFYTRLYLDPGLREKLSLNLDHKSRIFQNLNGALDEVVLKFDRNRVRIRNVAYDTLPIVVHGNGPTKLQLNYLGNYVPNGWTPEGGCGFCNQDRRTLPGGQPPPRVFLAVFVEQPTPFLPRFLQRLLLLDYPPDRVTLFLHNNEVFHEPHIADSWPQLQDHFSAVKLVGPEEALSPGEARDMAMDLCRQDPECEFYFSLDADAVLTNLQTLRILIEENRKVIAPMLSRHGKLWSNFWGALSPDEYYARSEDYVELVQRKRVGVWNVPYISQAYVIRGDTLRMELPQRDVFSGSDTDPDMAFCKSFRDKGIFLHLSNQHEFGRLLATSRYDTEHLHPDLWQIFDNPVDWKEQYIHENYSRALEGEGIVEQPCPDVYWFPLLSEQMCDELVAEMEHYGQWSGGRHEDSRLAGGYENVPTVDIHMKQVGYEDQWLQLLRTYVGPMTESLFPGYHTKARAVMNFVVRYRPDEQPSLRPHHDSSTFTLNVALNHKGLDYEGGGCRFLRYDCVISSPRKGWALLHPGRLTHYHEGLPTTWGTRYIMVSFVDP
Description: Inactivation of lysyl hydroxylase activity by imidazole. Here is the method: (§1) LH activity was assayed by a method based on the hydroxylation-coupled decarboxylation of 2-oxo(1-^14C)glutarate (Kivirikko and Myllylä 1982), synthetic peptide […] was used as a substrate. GGT activity was assayed as described elsewhere (Myllylä et al. 1975). The method is based on the transfer of radioactively (tritium) labelled glucose from UDP-glucose to galactosylhydroxylysyl residues in calf skin gelatin substrate and on the specific assay of the product of the enzyme reaction after alkaline hydrolysis.
(§2) LH3 was expressed in Sf9 cells as a protein with His-tag at the amino-terminus. This enabled us to use nickel column in the purification of the protein from the cell extract of insect cells, because nickel-charged agaroses are developed for the purification of recombinant proteins containing a polyhistidine (6×His) as a tag. […] No lysyl hydroxylase activity could be detected in the eluate, however. We have determined that imidazole is a potent inhibitor of lysyl hydroxylase activity. […] Imidazole in the concentration of 100 mM and 10 mM inactivated lysyl hydroxylase activity by 55% and 20%, respectively.

The target of test [2] is T2, GGT activity of His-tagged LH3 (Homo sapiens, UniProt O60568).
T2 construct: human LH1 signal peptide (N, cleaved yes); made in house; host or cells: Sf9 insect cells, baculovirus (pFastBacI, BAC-TO-BAC)
T2 sequence (O60568 25-738): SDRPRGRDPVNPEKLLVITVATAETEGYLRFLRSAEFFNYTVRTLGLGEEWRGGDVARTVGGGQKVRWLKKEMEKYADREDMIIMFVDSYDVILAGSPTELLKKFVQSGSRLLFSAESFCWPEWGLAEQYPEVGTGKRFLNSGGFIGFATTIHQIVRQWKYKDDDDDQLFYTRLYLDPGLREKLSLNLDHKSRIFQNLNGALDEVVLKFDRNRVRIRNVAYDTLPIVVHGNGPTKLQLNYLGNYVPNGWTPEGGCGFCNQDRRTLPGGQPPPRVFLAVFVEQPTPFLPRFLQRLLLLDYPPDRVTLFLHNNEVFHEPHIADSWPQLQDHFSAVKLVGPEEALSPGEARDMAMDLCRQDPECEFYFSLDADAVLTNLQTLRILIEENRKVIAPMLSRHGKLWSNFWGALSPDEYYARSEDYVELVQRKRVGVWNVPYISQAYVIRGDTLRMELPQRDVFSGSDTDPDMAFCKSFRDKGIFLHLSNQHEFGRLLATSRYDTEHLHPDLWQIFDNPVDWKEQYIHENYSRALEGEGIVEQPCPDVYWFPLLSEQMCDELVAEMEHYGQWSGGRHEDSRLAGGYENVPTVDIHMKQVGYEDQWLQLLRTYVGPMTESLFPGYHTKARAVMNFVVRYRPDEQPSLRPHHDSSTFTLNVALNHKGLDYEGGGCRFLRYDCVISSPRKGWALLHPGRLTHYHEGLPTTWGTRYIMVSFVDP
Description: Effect of imidazole on GGT activity of His-tagged LH3 from Sf9 cells. Here is the method: as §1, §2

Test [3] deals with T3, GT activity of the protein produced in E. coli cells with human LH3 cDNA (Homo sapiens, UniProt O60568).
T3 construct: made in house; host or cells: E. coli XL1-Blue (pQE30)
T3 sequence (O60568 25-738): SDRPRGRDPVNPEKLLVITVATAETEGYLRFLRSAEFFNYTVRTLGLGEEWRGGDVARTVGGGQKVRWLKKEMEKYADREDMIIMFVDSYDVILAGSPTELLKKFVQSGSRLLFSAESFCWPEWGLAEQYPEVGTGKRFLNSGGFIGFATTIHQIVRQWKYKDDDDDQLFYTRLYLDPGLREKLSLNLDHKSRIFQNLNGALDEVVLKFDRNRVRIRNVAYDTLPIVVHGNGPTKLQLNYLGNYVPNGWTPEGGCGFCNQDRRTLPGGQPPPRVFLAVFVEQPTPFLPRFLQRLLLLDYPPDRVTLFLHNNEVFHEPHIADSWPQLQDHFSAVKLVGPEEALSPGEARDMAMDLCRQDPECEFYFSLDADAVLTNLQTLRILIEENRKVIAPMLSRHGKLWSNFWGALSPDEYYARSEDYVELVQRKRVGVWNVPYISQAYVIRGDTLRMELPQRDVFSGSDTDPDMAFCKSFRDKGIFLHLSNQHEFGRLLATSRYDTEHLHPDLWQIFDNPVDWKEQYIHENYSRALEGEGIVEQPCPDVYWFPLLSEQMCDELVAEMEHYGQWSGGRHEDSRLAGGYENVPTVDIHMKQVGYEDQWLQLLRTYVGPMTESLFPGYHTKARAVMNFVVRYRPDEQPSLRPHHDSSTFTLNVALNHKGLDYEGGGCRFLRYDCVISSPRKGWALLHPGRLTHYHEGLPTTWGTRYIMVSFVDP
Description: Effect of imidazole on GT activity of protein produced in E. coli with human LH3 cDNA. As to the method: (§3) PFastBacI constructs for human LH1, LH2a, LH2b and LH3 were cleaved with BamHI and Hind III restriction enzymes and coding regions were subcloned into same site in E. coli expression vector pQE30 containing (His)6 tag at the amino terminus. Insert for C. elegans LH (corresponding to amino acids 14-730 in cDNA) was generated by PCR and ligated into SacI-PstI site of pOE30 vector. Constructs were transformed into E. coli XL1-Blue strain. Cultures were grown to OD600 of 0.6 at 37° C. Protein expression was induced by adding 1 mM IPTG and incubation was proceed at 30° C. for 5 hours. Cells were harvested and stored at −20° C. For activity measurements cell pellet was suspended to lysis buffer (0.4 M NaCl, 0.5% Nonident and 20 mM Tris-HCl pH 7.8, at 20° C.) and incubated in the presence of lysozyme (50 μg/ml), DNAase (10 μg/ml) and RNAase (10 μg g/ml) at room temperature for 30 minutes. Lysis was completed by sonication. Cell debris was pelleted and supernatant was used in the measurements.
(§4) GT and GGT activities were measured by a method based on the transfer of radioactively (tritium)-labeled sugar from UDP-sugar to hydroxylysyl or galactosylhydroxylysyl residues in a calf skin gelatin substrate, respectively (Myllylä et al. 1975). The specific detection of the reaction products was performed after alkaline hydrolysis.

The target in test [4] is T4, GGT activity of the protein produced in E. coli cells with human LH3 cDNA (Homo sapiens, UniProt O60568).
T4 construct: made in house; host or cells: E. coli XL1-Blue (pQE30)
T4 sequence (O60568 25-738): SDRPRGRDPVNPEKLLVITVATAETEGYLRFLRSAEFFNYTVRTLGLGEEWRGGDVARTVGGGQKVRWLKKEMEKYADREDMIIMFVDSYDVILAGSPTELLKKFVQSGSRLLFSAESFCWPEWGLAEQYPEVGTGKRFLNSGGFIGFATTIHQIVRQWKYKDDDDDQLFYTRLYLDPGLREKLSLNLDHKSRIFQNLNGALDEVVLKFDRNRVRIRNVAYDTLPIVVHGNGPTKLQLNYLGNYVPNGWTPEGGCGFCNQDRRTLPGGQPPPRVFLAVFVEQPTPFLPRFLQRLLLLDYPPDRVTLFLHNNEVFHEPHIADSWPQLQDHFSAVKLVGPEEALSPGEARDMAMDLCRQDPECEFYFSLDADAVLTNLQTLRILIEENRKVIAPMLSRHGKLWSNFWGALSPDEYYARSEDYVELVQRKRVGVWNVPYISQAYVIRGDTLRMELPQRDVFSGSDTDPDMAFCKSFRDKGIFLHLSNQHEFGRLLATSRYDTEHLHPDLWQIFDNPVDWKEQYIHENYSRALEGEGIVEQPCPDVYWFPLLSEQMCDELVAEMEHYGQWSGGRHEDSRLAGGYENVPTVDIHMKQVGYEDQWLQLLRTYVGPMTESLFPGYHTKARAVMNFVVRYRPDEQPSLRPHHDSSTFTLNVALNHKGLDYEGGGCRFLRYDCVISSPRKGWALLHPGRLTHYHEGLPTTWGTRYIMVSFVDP
Description: Effect of imidazole on GGT activity of protein produced in E. coli with human LH3 cDNA. Here is the method:
as §3, §4

Structures are written as SMILES.

Consider `c1c[nH]cn1` [imidazole], for which the “inactivation of lysyl hydroxylase activity” value in test [1] (10 mM imidazole) is reported as 20%; in test [1] (100 mM imidazole), 55%; in test [1] (300 mM imidazole, 2 h on ice), “almost complete inactivation”. The “effect on GGT activity” value in test [2] (10 mM to 100 mM imidazole) is “no effect”. Besides, the results for the inhibition at 300000 µM in test [2] (300 mM imidazole), in test [3] (300 mM imidazole) and in test [4] (300 mM imidazole) were 25%, 60% and approximately 30%, respectively. Moreover, the results for the GT activity in test [3] (10 mM imidazole (no inhibitor: 760.000)), in test [3] (100 mM imidazole (no inhibitor: 760.000)) and in test [3] (300 mM imidazole (no inhibitor: 760.000)) were 795.000 dpm/mg, 605.000 dpm/mg and 310.000 dpm/mg, respectively. Also, the values for the GGT activity in test [4] (10 mM imidazole (no inhibitor: 667.000)), in test [4] (100 mM imidazole (no inhibitor: 667.000)) and in test [4] (300 mM imidazole (no inhibitor: 667.000)) were 583.000 dpm/mg, 599.000 dpm/mg and 459.000 dpm/mg, respectively.
